Results on two compounds are retold here after ChEMBL document CHEMBL1155500, “The metabolites of mangrove endophytic fungus Zh6-B1 from the South China Sea” (2010).

This experiment can be described thus: Cytotoxicity against human KV/MDR cells at 100 uM after 48 hrs by MTT assay. Particulars: read-out: GI. Type of experiment: functional. For orientation: Formazan colour is commonly taken as a measure of viable cells.

As to `C[C@@H]1C[C@H](O)CCCc2cc(O)cc(O)c2C(=O)O1`, the inhibition of growth at 100 µM amounted to 42.4%.

On to `C[C@@H]1C[C@@H](O)CCCc2cc(O)cc(O)c2C(=O)O1`, for which the inhibition of growth at 100 µM was 41.6%.
